Results on one molecule are retold here after US20230149507A1, “TREATMENT OF ALT CANCERS” (INSTITUTO DE MEDICINA MOLECULAR JOÃO LOBO ANTUNES, priority 2019, published 2023).

What all share (assay type): cell-based, human
The subject of assay [1] is U2OS cells. Nature of the assay: PML, RAD51, POLD3 localization at telomeres (IF/FISH), RO-3306 control. The conditions noted are these: RO-3306 treatment. The method, then:
(§1) (A) Quantifications experiments for PML or RAD51 immunostaining combined with telomeric DNA FISH. POLD3 immunostaining combined with RAP1 immunostaining (green); and EdU detection combined with and telomeric DNA FISH. Experiments were performed on U2OS cells transfected with the indicated siRNAs and harvested 48 hours after transfection. Each dot represents an individual nucleus. A total of at least 300 nuclei from three independent experiments were analyzed for each sample. Bars and error bars are means and SDs. P values were calculated with a Mann-Whitney U test. ***P<0.001, ****P<0.0001.
Cells grown on coverslips were incubated in CSK buffer for 7 min on ice. All subsequent treatments were performed at room temperature. Cells were fixed with 4% formaldehyde (Sigma-Aldrich) in 1×PBS for 10 min, permeabilized with CSK buffer for 5 min, and incubated in blocking solution (0.5% BSA, 0.1% Tween-20 in 1×PBS) for 1 h. Coverslips were incubated in blocking solution containing primary antibodies for 1 h, washed three times with 0.1% Tween-20 in 1×PBS for 10 min each, and incubated with secondary antibodies diluted in blocking solution for 50 min. DNA was counterstained with 100 ng/ml DAPI in 1×PBS. For combined IF and DNA FISH, cells were again fixed with 4% formaldehyde in 1×PBS for 10 min, washed three times with 1×PBS, incubated in 10 mM Tris-HCl pH 7.2 for 5 min and then denatured and hybridized with TelC-Cy3 probes as described above. DNA was counterstained with 100 ng/ml DAPI in 0.1 M Tris-HCl pH 7.2, 0.15 M NaCl, 0.08% Tween-20 and coverslips were mounted on slides in Vectashield. […]

The subject of another assay is U2OS interphase cells. Nature of the assay: Telomeric DNA FISH, number and area of telomeric foci, RO-3306 control. The note with it: siCt-transfected cells. The method, then:
FIG. 17. FANCM depletion alters telomeric DNA in interphase U2OS cells. (A) Western blot analysis of FANCM protein levels in U2OS cells transfected and treated with RO-3306 as indicated. Cells were harvested 48 hours after transfection. POLD3, RAD51 and PML levels were also analyzed. Beta Actin and LMB1 serve as loading controls. (B) Quantifications of FACS profiles of cells as in A stained with PI. […] R: RO-3306. (C)) Quantifications of numbers of telomeric foci per nucleus in experiments as in A. Each dot represents an individual nucleus. A total of at least 300 nuclei from three independent experiments were analyzed for each sample. Bars and error bars are means and SDs. P values were calculated with a Mann-Whitney U test. (D) Area distribution of telomeric foci areas in experiments as in C. 3D images were sum projected and areas of individual nuclear FISH signals were measured using DAPI staining to identify nuclei (not shown). A total of at least 300 nuclei from three independent experiments were analyzed for each sample. Areas of telomeric foci (in pixels) are binned into 25 intervals of 5-pixel width (x axis; numbers indicate bin centers) and plotted against frequencies (y axis; %). […] (E) Quantification of cells with at least 5 Large (L) foci in experiments as in C. P values were calculated with a two-tailed Student's t-test. *P<0.05, **P<0.005, ***P<0.001, ****P<0.0001. […]

Assay [2] concerns U2OS cells. Nature of the assay: Telomere FISH combined with EdU detection, RO-3306 control. The conditions noted are these: RO-3306 treatment; to lower extents than FANCM depletion. The method, then:
as §1
24 h after siRNA transfection cells were incubated in 10 μM RO-3306 (Selleckchem). 21.5 h later 10 μM EdU (Thermo Fisher Scientific) was added to the culture medium, followed by a 2.5 h incubation. Cells were first stained as for DNA FISH using the TelC-Cy3 probe and then washed twice with 1×PBS followed by EdU detection using the Click-iT EdU Alexa Fluor 488 Imaging Kit (Thermo Fisher Scientific) according to the manufacturer's instructions. DNA was counterstained with 100 ng/ml DAPI in 1×PBS and coverslips were mounted on slides in Vectashield. Image acquisition and analysis were as for DNA FISH.

As for `O=C1NC(=NCc2cccs2)S/C1=C\c1ccc2ncccc2c1` [RO-3306], in the assay with U2OS cells [1], the “number of telomeric PML foci” value is listed as “did not substantially affect” and the “number of telomeric RAD51 foci” value was “did not substantially affect”. Further, the “number of telomeric POLD3 foci” value with U2OS cells [1] (less importantly than FANCM depletion) is listed as “increased”. For the same molecule, the “number of telomeric foci” value in the assay on U2OS interphase cells (10 μM RO-3306) is on record as “less telomeric foci than control cells”. In addition, in the assay on U2OS interphase cells (RO-3306-treated), the “cells with at least 5 large foci” value is ~15%. For the same molecule, the “incidence of telomeric EdU foci” value in the assay with U2OS cells [2] was “increased the incidence of telomeric EdU foci”.
